Source: patent US9157087B2, “Inducible plant promoters and the use thereof” (University of Tennessee Research Foundation, priority 2012, dated 2015)

Tested on: transgenic soybean hairy roots
Experiment: Inducibility of ppor RFP reporter by chemical treatments (SA, ethephon, MeJA) in transgenic soybean hairy roots
Format: cell-based, soybean line TN02-275
Conditions: 4 mg/ml ethephon (ethylene releasing chemical), 3 days; listed as Promoter 2.3

ATATAATTAAGT (listed as DNA, chemistry not fully specified) [Motif 2.3, 12 bp SCN-inducible promoter motif, tested as tetramerized repeat 5′ of a minimal CaMV 35S promoter]
Inducibility by Effectors ERE: induced to a much lower degree
